Here are results for one compound from patent publication EP4810052A2, “HCRHR2 SELECTIVE POLYPEPTIDES” (Gubra A/S, priority 2023, dated 2026).

Like-named read-outs stand apart in the source and are kept apart here. Starred links: 1 amine or outer side, 2 acyl side, 3 side chain; linkers in the order of their positions; H or OH if unused. Non-standard residues stand in square brackets, D forms with d. Residues, ends and D or L forms follow the SMILES beside them. Groups on a side chain read outwards from the residue. *: point of attachment. C20 diacid = O=C(O)CCCCCCCCCCCCCCCCCCC(=O)*; γGlu = O=C(O)[C@H](CCC(=O)[*:2])N[*:1]; Nle = CCCC[C@H](N)C(=O)O; AEEA = NCCOCCOCC(=O)O; Aib = CC(C)(N)C(=O)O

Data set [1] concerns the target T1, hCRHR1 (Homo sapiens, UniProt P34998).
T1 sequence (P34998 24-415): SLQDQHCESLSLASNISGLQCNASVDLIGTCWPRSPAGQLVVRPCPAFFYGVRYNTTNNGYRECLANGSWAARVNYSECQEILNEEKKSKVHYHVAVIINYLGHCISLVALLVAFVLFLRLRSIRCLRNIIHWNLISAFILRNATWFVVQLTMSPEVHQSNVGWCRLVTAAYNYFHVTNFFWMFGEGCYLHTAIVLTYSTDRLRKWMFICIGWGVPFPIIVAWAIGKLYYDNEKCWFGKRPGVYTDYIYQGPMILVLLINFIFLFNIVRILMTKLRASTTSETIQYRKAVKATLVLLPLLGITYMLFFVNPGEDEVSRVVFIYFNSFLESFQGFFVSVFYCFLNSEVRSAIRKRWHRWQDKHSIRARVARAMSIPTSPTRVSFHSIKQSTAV
Kind of data set: HTRF cAMP assay, determination of hCRHR1 potency (peptide libraries 5 conc., purified peptides 11 conc.). It counts as cell-based. The method in brief:
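CHO-K1 cells stably expressing human CRHR1, thawed from frozen stocks just before use, were stimulated in suspension with agonist peptides. cAMP was measured by HTRF competitive immunoassay (cryptate anti-cAMP antibody vs d2-cAMP).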
A general note: TR-FRET usually uses a lanthanide donor and a delayed reading to cut background.

The nature of data set [2]: Chemical stability of purified peptides (RP-UHPLC main peak purity loss). The data set is classed as physicochemical. The settings on record: for Purity loss (RP-UPLC analysis) T14-T0 (%): 14 days; for Purity loss (RP-UPLC analysis) T28-T0 (%): 28 days. The essentials:
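Peptides at about 1.0 mg/ml in 50 mM phosphate buffer pH 7.5, or pH-adjusted for the pH series, were incubated at 40 °C for 14 and 28 days. Main-peak purity was taken as main-peak area over total area by RP-UHPLC (UV 215 nm, C8, 50 °C). Purity loss was calculated versus T0.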

Data set [3] is described as follows: PK in mice. The data set is classed as in vivo. More on the design: T½ / MRT: unit: h. The settings on record: for half-life: read-out: T½ (converted). The method in brief: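 Male NMRI/RjHan lean mice, about 8 weeks old after acclimatization, got one peptide IV and another SC at 15 or 50 nmol/kg. Sparse plasma sampling (3 mice per timepoint) ran from 0.17 to 96 h post-dose. LC-MS/MS quantified plasma levels, with parameters from non-compartmental analysis.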

Data set [4] relates to pCRHR1. In words: cAMP potency, transiently transfected CHO-K1 cells, pCRHR1. The data set is classed as cell-based, pig. Conditions: transiently transfected CHO-K1, average n=3; read-out: Transient cell system EC50 (nM) pCRHR 1. The method, then: (§1) Selected peptides were tested for potency on different species (mouse, rat, porcine) using transiently transfected CHO-K1 cells using the general procedure.

Data set [5] relates to pCRHR2. Kind of data set: cAMP potency, transiently transfected CHO-K1 cells, pCRHR2. It counts as cell-based, pig. The settings on record: transiently transfected CHO-K1, average n=3; read-out: Transient cell system EC50 (nM) pCR HR2. The method, then:
as §1

The target of data set [6] is T1, hCRHR1. In words: cAMP potency, transiently transfected CHO-K1 cells, hCRHR1. The data set is classed as cell-based. Also noted: DYK (FLAG); host or cells: CHO-K1, transiently transfected. Conditions: transiently transfected CHO-K1, average n=3; read-out: Transient cell system EC50 (nM) hCR HR1.
Setting [7] is: male, NMRI/RjHan, in vivo, iv, Mouse, 15 nmol/kg i.v.
[8] abbreviates: male, NMRI/RjHan, in vivo, sc, Mouse, 15 nmol/kg s.c.

By EC50 is commonly meant the midpoint of the concentration-response curve. By bioavailability is commonly meant dose-corrected exposure relative to a reference, in per cent. In general, clearance refers to a measure of how efficiently the substance is removed, as volume per time. The term Cmax denotes the highest concentration seen after dosing. As a reminder, the Tmax is the time at which the peak concentration occurs. As to `CCCC[C@H](NC(=O)[C@@H](NC(=O)[C@H](CCC(=O)O)NC(=O)[C@H](C)NC(=O)[C@H](CC(N)=O)NC(=O)C(C)(C)NC(=O)[C@H](CCCCNC(=O)COCCOCCNC(=O)COCCOCCNC(=O)CC[C@H](NC(=O)CC[C@H](NC(=O)CCCCCCCCCCCCCCCCCCC(=O)O)C(=O)O)C(=O)O)NC(=O)[C@H](C)NC(=O)[C@H](CCC(N)=O)NC(=O)[C@H](CCC(=O)O)NC(=O)[C@H](CCCNC(=N)N)NC(=O)[C@H](C)NC(=O)[C@H](C)NC(=O)[C@H](CCCNC(=N)N)NC(=O)[C@H](C)NC(=O)[C@H](CCCNC(=N)N)NC(=O)[C@H](C)NC(=O)[C@H](CCC(N)=O)NC(=O)[C@H](CO)NC(=O)[C@H](CC(C)C)NC(=O)[C@H](CC(C)C)NC(=O)[C@@H](NC(=O)[C@H](CCC(N)=O)NC(=O)[C@H](CC(C)C)NC(=O)[C@H](CC(C)C)NC(=O)CNC(=O)[C@@H](NC(=O)[C@@H]1CCCN1C(=O)[C@@H](NC(=O)[C@H](CC(=O)O)NC(=O)[C@H](CC(C)C)NC(=O)[C@H](CO)NC(=O)[C@H](CC(C)C)NC(=O)[C@@H](NC(=O)[C@@H]1CCCN1)C(C)C)C(C)C)[C@@H](C)CC)[C@@H](C)CC)[C@@H](C)CC)C(=O)N[C@@H](C)C(=O)N[C@@H](CCC(=O)O)C(=O)N[C@H](C(N)=O)C(C)C` [SEQ ID NO: 238] (H-PVLSLDVPIGLLQILLSQARARAAREQAK([AEEA-AEEA-γGlu-γGlu-C20 diacid])[Aib]NAEI[Nle]AEV-NH2), the EC50 in data set [1] (Table 5, purified peptides, read-out: hCRHR1 EC50) is greater than 5000 nM; in data set [1] (stable cell system, Table 10, read-out: Stable EC50 (nM) hCRHR 1), greater than 5000 nM; in data set [4], greater than 5000 nM; in data set [5], 0.015 nM; in data set [6], greater than 5000 nM. Also, the “Purity loss (RP-UPLC analysis) T14-T0 (%)” value in data set [2] (pH 7.0, 40°C) is -1.0%; in data set [2] (pH 7.5, 40°C), -3.1%; in data set [2] (pH 8.0, 40°C) it was -5.1%. Besides, the “Purity loss (RP-UPLC analysis) T28-T0 (%)” value in data set [2] (pH 7.0, 40°C) is -1.2%; in data set [2] (pH 7.5, 40°C) it was -4.8%; in data set [2] (pH 8.0, 40°C), -9.8%. In data set [2] (pH 7.5, 14 days, 40°C), the “Chemical stability at pH 7.5 after 14 days at 40°C (% degradation)” value was -1.6%. In addition, the “Chemical stability at pH 7.5 after 28 days at 40°C (% degradation)” value in data set [2] (pH 7.5, 28 days, 40°C) is recorded as -4.6%. This compound also yielded an MRT in data set [3] (Mouse) of 21.4. In data set [3] (Mouse), this compound yielded a T½ of 19.6. Also, the bioavailability in data set [3] (male, NMRI, mouse, in vivo, sc) is 60%. This compound showed a clearance in data set [3] (setting [7]) of 4.4 mL/h/kg. Besides, the figures for the half-life in data set [3] (setting [7]) and in data set [3] (setting [8]) were 19.6 h and 25.2 h, respectively. The Cmax in data set [3] (setting [8]) worked out at 48 nM. Further, the Tmax in data set [3] (setting [8]) was determined as 24 h.
